Results reported in article PMC2719696, “Kinetics and Cellular Site of Glycolipid Loading Control the Outcome of Natural Killer T Cell Activation” (Immunity, 2009).

Target: T1, mCD1d (Mus musculus, UniProt P11609)
T1 construct: host or cells: JAWS II (C57BL/6.Trp53-/- derived dendritic cell line)
T1 sequence (P11609 22-336): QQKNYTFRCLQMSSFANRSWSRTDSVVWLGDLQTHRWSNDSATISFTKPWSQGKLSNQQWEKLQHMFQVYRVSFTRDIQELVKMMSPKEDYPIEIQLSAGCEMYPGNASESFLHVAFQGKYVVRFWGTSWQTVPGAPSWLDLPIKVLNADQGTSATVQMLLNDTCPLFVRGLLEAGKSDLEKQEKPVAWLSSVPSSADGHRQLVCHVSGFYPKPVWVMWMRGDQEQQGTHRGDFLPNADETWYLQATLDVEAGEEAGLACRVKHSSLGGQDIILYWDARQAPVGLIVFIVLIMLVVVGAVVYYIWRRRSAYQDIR
T1 sequence (P01887 21-119 partner): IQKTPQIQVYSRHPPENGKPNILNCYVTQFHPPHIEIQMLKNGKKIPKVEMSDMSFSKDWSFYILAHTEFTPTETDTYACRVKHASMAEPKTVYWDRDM
Experiment: mAb L363 staining of αGalCer-mCD1d complexes on cultured mouse splenocytes
Assay type: cell-based
Settings: 100 nM glycolipid, 1 hr or 19 hr
Experimental: We studied this possibility directly by using a monoclonal antibody (L363) that specifically recognizes complexes of αGalCer bound to mCD1d ([Yu et al., 2007]). Mouse splenocytes were cultured with either αGalCer-C26:0 or representative Th2 cell-type cytokine-biasing analogs, and L363 staining was assessed on various cell types (Figure 3A). […] This was investigated further with more detailed kinetic studies in which immortalized mouse DC line JAWS II was cultured with each glycolipid and assessed for L363 surface staining at 0.5, 4, and 18 hr (Figure 3B). […]
Figure 3 Direct Analysis of Presentation of αGalCer Analogs with Complex-Specific mAb Staining (A) Mouse splenocytes cultured with either vehicle only (0.02% DMSO) or with the indicated αGalCer analogs (100 nM) were harvested after 1 hr or 19 hr of incubation and stained with mAb L363 or anti-CD1d mAb 1B1 and with mAbs specific for CD11c, CD19, and F4/80 (Figure S4). […] (B) JAWS II cells were incubated with glycolipids (250 nM) for various times ranging from 0.5–18 hr as indicated, stained with mAb L363, and analyzed by flow cytometry. […]
Recombinant CD1d proteins were produced and assembled into tetramers for staining as previously described ([Forestier et al., 2007]). […] All samples were analyzed with the FACSCalibur flow cytometer (BD Biosciences). […]

CCCCCCCCCCCCCCC(O)C(O)C(COC1OC(CO)C(O)C(O)C1O)NC(=O)CCCCCCCCC (stereo not shown) [αGalCer-C10:0]
L363 staining of splenocyte populations: extremely early appearance of L363 staining
